Source: US20090264528A1, “SERINE PALMITOYLCOA TRANSFERASE (SPT) INHIBITION BY MYRIOCIN OR GENETIC DEFICIENCY DECREASES CHOLESTEROL ABSORPTION” (The Research Foundation of State University of New York, priority 2008, published 2009)

How the values were obtained:
[1] = test system: enterocytes; experiment: Mouse enterocyte lipid measurement; assay type: in vivo
Procedure: The mechanisms responsible for decreased cholesterol absorption in myriocin-treated or Sptlc1^+/− mice were explored. First, lipid levels were measured in enterocytes isolated from myriocin-treated and Sptlc1^+/− mice, as well as controls.

[2] = test system: cholesterol absorption; experiment: Cholesterol absorption, fecal dual-isotope ratio method; assay type: in vivo, mouse; settings: single gavage, feces 24 hours
Procedure: FIGS. 5A-I depict several graphs that illustrate that SPT deficient mice absorbed less cholesterol. Mice (n=6, 10-12 weeks old) were fasted for 5 hours and gavaged with 0.1 microCi [^14C]cholesterol and 0.2 microCi [^3H]sitostanol with 0.5 mg unlabeled cholesterol dissolved in 15 microl of olive oil. Feces were collected after 24 hours and lipids were extracted for counting (FIGS. 5A, 5D, and 5G, cholesterol absorption, WT vs WT/myriocin; apoE KO vs apoE KO/myriocin; WT vs Sptlc1^+/−, respectively). Blood was collected during the 24 hour period (Panels B, E, and H, [^14C]cholesterol in blood, WT vs WT/myriocin; apoE KO vs apoE KO/myriocin; WT vs Sptlc1^+/−, respectively). To test specificity, the mice were gavaged with 0.2 microCi [^3H]triolein together with 0.5 mg/ml cold cholesterol. Blood was collected during the 24 hour period (FIGS. 5C, 5F, and 5I, [^3H] glycerolipids in blood, WT versus WT/myriocin; apoE KO versus apoE KO/myriocin; WT versus Sptlc1^+/−, respectively). […]
Cholesterol absorption studies: A classical fecal dual-isotope ratio method was used for the cholesterol absorption study. […] The cholesterol absorption ratio was calculated as: % absorption={1−[fecal(^14C/^3H)]/administered(^14C/^3H)}×100. In some cases, mice were sacrificed, plasma collected, and radioactivity counted. […] Each of these, as well as a part of the liver, were digested and radioactivity counted individually. […]

[3] = test system: ABCA1; experiment: Western blot of small intestine homogenates, ABCA1; assay type: in vivo, mouse; settings: SPT-deficient small intestines (myriocin-treated, FIG. 6A) compared with controls
Procedure: FIG. 8 depicts that SPT deficiency decreased NPC1L1 and ABCA1, and increased ABCG5 in mouse small intestine. Tissue homogenates were prepared as described in Methods, and equal amounts of homogenates from each mouse were pooled in each group (n=5). A total of 50 microg pooled sample from each group was immunoblotted with antibodies against NPC1L1, ABCA1, and ABCG5. Immunoblots of beta (β)-actin were used as a loading control.
Preparation and Western blot analysis of small intestine homogenates: A total of 50-100 mg of small intestine sample was homogenized and lysed proteins were immunoblotted, as previously described, (3) with a polyclonal rabbit antihuman NPC1L1 antiserum 69B, a polyclonal rabbit antimouse ABCG5 antiserum, a polyclonal antimouse ABCA1 antibody, and a monoclonal mouse anti-(beta)β-actin antibody.
Next, Western blot measurements of NPC1L1 and ABCG5/G8 were completed, where the measurement were located in apical membranes of the enterocytes. […] Also, ABCA1 was measured, which is located in the basal membranes of the enterocytes and is involved in cholesterol secretion.

[4] = Mouse plasma lipid measurement; assay type: in vivo; settings: for plasma Chol (cholesterol) / plasma PC (phosphatidylcholine) / plasma SM (sphingomyelin) / plasma TG (triglycerol): mean ± SD, N=6
Procedure: Mice and diet: Male C57BL/6J and apoE KO (Apolipoprotien E knockout) mice with a C57BL/6J background were obtained from the Jackson Laboratory (Bar Harbor, Me.). Sptlc1 heterozygous KO mice with a C57BL/6 background were created and bred in the inventors' laboratory. Myriocin was mixed with a chow diet. Eight- to 12-week-old WT or apoE KO (n=6) mice received myriocin 0.3 mg kg^−1·d^−1 for 12 weeks. The myriocin dose was chosen from a previous dose-dependent experiment with apoE-KO mice. Controls consisted of WT or apoE KO mice fed a chow diet (n=6). Sptlc1 heterozygous KO (Sptlc1^+/−)(n=6) and WT mice were also fed a chow diet. […]
As reported previously in (25), which is incorporated by reference herein, Sptlc1^+/− and WT mice had identical plasma lipid levels (Table 1).

[5] = test system: ABCG8 mRNA; experiment: Real-time PCR, ABCG8 mRNA; assay type: in vivo, mouse; settings: for increase of ABCG8 mRNA levels compared with controls: small intestine, P<0.01
Procedure: FIGS. 9A-F depict that Mouse small intestine and liver NPC1L1, ABCG5/G8, and ABCA1 mRNA measurements. NPC1L1, ABCG5/G8, and ABCA1 mRNA levels were measured by real-time PCR as described in “Methods and Materials.” FIG. 9A, jejunum from WT mice with or without myriocin treatment; FIG. 9B, jejunum from apoE KO mice with or without myriocin treatment; FIG. 9C, jejunum from WT and Sptlc1^+/− mice; FIG. 9D, liver from WT mice with or without myriocin treatment; FIG. 9E, liver from apoE KO mice with or without myriocin treatment; FIG. 9F, liver from WT and Sptlc1^+/− mice. Values are mean±SD, n=5. *P<0.01.
Real-time PCR examined genes' expression: Mice were sacrificed by cervical dislocation. Jejunum was dissected, and total RNA extracted with Trizol (Invitrogen). cDNA was synthesized with an Invitrogen kit. Polymerase chain reaction (PCR) was performed on a total volume of 20 microl with the sybergreen kit from Applied Biosystems, 18S being used as an internal control. The amplification program consisted of activation at 95 degrees C. for 10 minutes, followed by 40 amplification cycles: 95 degrees C. for 15 seconds, 60 degrees C. for 1 minute. Each sample was triplicated. The genes' relative expression was expressed as mean±SD. The primers are located in the below table which lists the name, sequence, and sequence identification number.
For further elucidation of the possible mechanisms for cholesterol absorption reduction in the SPT-deficient small intestine, NPC1L1, ABCG5/G8, and ABCA1 mRNA levels in myriocin-treated WT, apoE KO, and Sptlc1^+/− mice, as well as in controls were measured. […] Moreover, intestinal MTP activity was not influenced by SPT deficiency (data not shown). Also, the liver mRNA levels were measured to find that myriocin treatment or Sptlc1 deficiency has no influence on ABCG5/G8 mRNA levels […]. […] NPC1L1 mRNA in WT or Sptlc1^+/− livers were not detected (data not shown).

[6] = myriocin-treated mice vs controls

With `CCCCCCC(=O)CCCCCC/C=C/C[C@@H](O)[C@H](O)[C@@](N)(CO)C(=O)O` [Myriocin, myriocin] the “enterocyte Chol (cholesterol)” value ([1]; WT mice, mean ± SD, N=5-7) was 16.2 ± 1.2 microg/mg protein, the “enterocyte PC (phosphatidylcholine)” value ([1]; WT mice, mean ± SD, N=5-7) was 27.9 ± 2.3 microg/mg protein and the “enterocyte SM (sphingomyelin)” value ([1]; WT mice, mean ± SD, N=5-7) was 6.2 ± 0.9 microg/mg protein. The “enterocyte TG (triglycerol)” value ([1]; WT mice, mean ± SD, N=5-7) was 11.1 ± 1.9 microg/mg protein, the “SM levels in enterocytes, in words” value [1, 6] was “significantly decreases” and the “cellular cholesterol, phosphatidylcholine, or triglyceride levels in enterocytes, in words” value [1, 6] was “no effect”. For the same compound, the “reduction in cholesterol absorption compared with controls” value ([2]; myriocin-treated WT mice, P<0.01) was 36%, the “reduction in cholesterol absorption compared with controls” value ([2]; myriocin-treated apoE KO mice, P<0.001) was 50% and the “ABCA1 protein in small intestine” value [3] was “decreased”. The “plasma Chol (cholesterol)” value ([4]; ApoE KO mice) was 350 ± 42 mg/dL, the “plasma PC (phosphatidylcholine)” value ([4]; ApoE KO mice) was 334 ± 49 mg/dL and the “plasma SM (sphingomyelin)” value ([4]; ApoE KO mice) was 39 ± 4 mg/dL. The “plasma TG (triglycerol)” value ([4]; ApoE KO mice) was 89 ± 13 mg/dL, the “effect on plasma lipids, including SM, PC, and cholesterol levels” value ([4]; WT mice) was “no significant effect” and the “plasma Chol (cholesterol)” value ([4]; WT mice) was 95 ± 12 mg/dL. The “plasma PC (phosphatidylcholine)” value ([4]; WT mice) was 155 ± 31 mg/dL, the “plasma SM (sphingomyelin)” value ([4]; WT mice) was 22 ± 2 mg/dL and the “plasma TG (triglycerol)” value ([4]; WT mice) was 71 ± 15 mg/dL. For the same compound, the “decrease of plasma SM compared with controls” value ([4]; apoE KO mice, P<0.001) was 48%, the “decrease of plasma cholesterol compared with controls” value ([4]; apoE KO mice, P<0.01) was 37% and the “ABCG8 mRNA levels (printed ABCG5/G8)” value ([5]; liver) was “no influence”. For the same compound, the “increase of ABCG8 mRNA levels compared with controls” value ([5]; WT mice) was 46% and the “increase of ABCG8 mRNA levels compared with controls” value ([5]; apoE KO mice) was 63%.
